Several values for one entry are separate records, joined by “and”; a condition that tells them apart may be missing. Equal values may be shown once. Toxic doses and inconclusive results are not listed. How the source made its calls: active means survival T/C of 150% or more; inactive means T/C below 125% in these data.
Tested on: P388 leukemia ip, CD2F1 mice, survival T/C
Test: NCI In Vivo Anticancer Drug Screen. Data for tumor model P388 Leukemia (intraperitoneal) in CD2F1 (CDF1) mice
Conditions: endpoint: median survival time, higher = longer survival
Method in brief: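 Mice carrying the transplanted tumor received test compound or vehicle. Survival was recorded in each group, and the value is the treated-group measurement divided by that of the vehicle-treated control group.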

[1] = dose: 12.5 mg/kg/injection, schedule: Q01DX009 (ip), vehicle: Klucel (hydroxypropylcellulose) (HPC)
[2] = dose: 50.0 mg/kg/injection, schedule: Q01DX009 (ip), vehicle: Klucel (hydroxypropylcellulose) (HPC)
[3] = dose: 50.0 mg/kg/injection, schedule: Q01DX005 (ip), vehicle: saline with Tween-80
[4] = dose: 100.0 mg/kg/injection, schedule: Q01DX005 (ip), vehicle: saline with Tween-80
[5] = dose: 200.0 mg/kg/injection, schedule: Q01DX005 (ip), vehicle: saline with Tween-80
[6] = dose: 50.0 mg/kg/injection, schedule: Q01DX009 (ip), vehicle: saline with Tween-80
[7] = dose: 100.0 mg/kg/injection, schedule: Q01DX009 (ip), vehicle: saline with Tween-80
[8] = dose: 50.0 mg/kg/injection, schedule: Q01DX005 (ip), vehicle: Klucel (hydroxypropylcellulose) (HPC)
[9] = dose: 100.0 mg/kg/injection, schedule: Q01DX005 (ip), vehicle: Klucel (hydroxypropylcellulose) (HPC)
[10] = dose: 100.0 mg/kg/injection, schedule: Q01DX001 (ip), vehicle: saline with Tween-80
[11] = dose: 200.0 mg/kg/injection, schedule: Q01DX001 (ip), vehicle: saline with Tween-80
[12] = dose: 400.0 mg/kg/injection, schedule: Q01DX001 (ip), vehicle: saline with Tween-80
[13] = dose: 50.0 mg/kg/injection, schedule: Q01DX009 (ip), vehicle: saline
[14] = dose: 100.0 mg/kg/injection, schedule: Q01DX009 (ip), vehicle: saline
[15] = dose: 200.0 mg/kg/injection, schedule: Q01DX009 (ip), vehicle: saline

Measured: T/C

O=C(Cc1ccccc1)c1ccc(C(F)(F)F)cc1
inactive: [1] 104 % of control | dose: 25.0 mg/kg/injection, schedule: Q01DX009 (ip), vehicle: Klucel (hydroxypropylcellulose) (HPC) 95 % of control | [2] 104 % of control and 87 % of control

COc1ccc2c(c1N)CC[C@@H]1C2CC[C@]2(C)C(O)CCC12 (stereo not given in full)
inactive: [3] 104 % of control | [4] 96 % of control | [5] 91 % of control

CCCCCOCCCCC
inactive: dose: 25.0 mg/kg/injection, schedule: Q01DX005 (ip), vehicle: saline 100 % of control | dose: 50.0 mg/kg/injection, schedule: Q01DX005 (ip), vehicle: saline 99 % of control | dose: 100.0 mg/kg/injection, schedule: Q01DX005 (ip), vehicle: saline 95 % of control | dose: 200.0 mg/kg/injection, schedule: Q01DX005 (ip), vehicle: saline 96 % of control

COC(=O)c1ccccc1NC(=O)Nc1ncccn1
inactive: [2] 100 % of control | dose: 100.0 mg/kg/injection, schedule: Q01DX009 (ip), vehicle: Klucel (hydroxypropylcellulose) (HPC) 100 % of control | dose: 200.0 mg/kg/injection, schedule: Q01DX009 (ip), vehicle: Klucel (hydroxypropylcellulose) (HPC) 96 % of control

CCOC(=O)c1ccc(NC(CCN2CCOCC2)=NC(C)(C)C)cc1
inactive: [6] 111 % of control | [7] 106 % of control | dose: 200.0 mg/kg/injection, schedule: Q01DX009 (ip), vehicle: saline with Tween-80 105 % of control

COC1=CC(=O)c2c(O)c3c(c(O)c2C1=O)OC1(Oc2c(cc4cc(C)oc(=O)c4c2O)CC1O)C3O (stereo not given)
inactive: dose: 3.0 mg/kg/injection, schedule: Q01DX009 (ip), vehicle: Klucel (hydroxypropylcellulose) (HPC) 100 % of control | dose: 6.0 mg/kg/injection, schedule: Q01DX009 (ip), vehicle: Klucel (hydroxypropylcellulose) (HPC) 117 % of control | dose: 12.0 mg/kg/injection, schedule: Q01DX009 (ip), vehicle: Klucel (hydroxypropylcellulose) (HPC) 99 % of control | dose: 24.0 mg/kg/injection, schedule: Q01DX009 (ip), vehicle: Klucel (hydroxypropylcellulose) (HPC) 99 % of control

O=S(=O)(Nc1ccccc1F)c1ccc(F)cc1
inactive: dose: 60.0 mg/kg/injection, schedule: Q01DX005 (ip), vehicle: saline with Tween-80 106 % of control | dose: 120.0 mg/kg/injection, schedule: Q01DX005 (ip), vehicle: saline with Tween-80 100 % of control | dose: 240.0 mg/kg/injection, schedule: Q01DX005 (ip), vehicle: saline with Tween-80 106 % of control

COc1nc(N2CCNCC2)nc2c1CCCC2
inactive: dose: 60.0 mg/kg/injection, schedule: Q01DX005 (ip), vehicle: saline 93 % of control | dose: 120.0 mg/kg/injection, schedule: Q01DX005 (ip), vehicle: saline 103 % of control

CC1=NN(C(=O)CC(=O)Nc2ccc(C(=O)O)cc2)C(=O)C1N=Nc1ccc(I)cc1 (stereo not given)
inactive: dose: 100.0 mg/kg/injection, schedule: Q04DX002 (ip), vehicle: saline with Tween-80 96 % of control | dose: 200.0 mg/kg/injection, schedule: Q04DX002 (ip), vehicle: saline with Tween-80 98 % of control | dose: 400.0 mg/kg/injection, schedule: Q04DX002 (ip), vehicle: saline with Tween-80 120 % of control

COc1ccccc1C1c2cc3c(cc2OC(C)(O)C1C)OCO3 (stereo not given)
inactive: [3] 100 % of control | [4] 97 % of control | [5] 96 % of control

CCC[CH2][Sn]([CH2]CCC)[S]CC(N)C(=O)O (stereo not given)
inactive: dose: 0.16 mg/kg/injection, schedule: Q01DX005 (ip), vehicle: Klucel (hydroxypropylcellulose) (HPC) 107 % of control | dose: 0.23 mg/kg/injection, schedule: Q01DX005 (ip), vehicle: Klucel (hydroxypropylcellulose) (HPC) 108 % of control | dose: 0.46 mg/kg/injection, schedule: Q01DX005 (ip), vehicle: Klucel (hydroxypropylcellulose) (HPC) 103 % of control and 104 % of control | dose: 0.93 mg/kg/injection, schedule: Q01DX005 (ip), vehicle: Klucel (hydroxypropylcellulose) (HPC) 117 % of control | dose: 3.75 mg/kg/injection, schedule: Q01DX005 (ip), vehicle: Klucel (hydroxypropylcellulose) (HPC) 108 % of control

CC1CCC(C(=O)C(Cl)Cc2ccccc2)CC1 (stereo not given)
inactive: [8] 88 % of control | [9] 92 % of control

O=C(NC(Cc1ccccc1)C(=O)O)OCCc1ccccn1 (stereo not given)
inactive: dose: 60.0 mg/kg/injection, schedule: Q01DX005 (ip), vehicle: Klucel (hydroxypropylcellulose) (HPC) 104 % of control | dose: 120.0 mg/kg/injection, schedule: Q01DX005 (ip), vehicle: Klucel (hydroxypropylcellulose) (HPC) 92 % of control | dose: 240.0 mg/kg/injection, schedule: Q01DX005 (ip), vehicle: Klucel (hydroxypropylcellulose) (HPC) 102 % of control

C=Cc1ccc(NC(=O)CCn2ccc(N)nc2=O)cc1
inactive: [10] 102 % of control | [11] 102 % of control | [12] 103 % of control

N#Cc1c(N)sc(=S)c2ccccc12
inactive: [13] 91 % of control | [14] 104 % of control | [15] 95 % of control

c1ccc(SCCC(Sc2ccccc2)Sc2ccccc2)cc1
inactive: [13] 100 % of control | [14] 106 % of control | [15] 106 % of control

O=C(CNC(=O)c1ccccc1)N/N=C/c1ccc2c(c1)OCO2
inactive: dose: 25.0 mg/kg/injection, schedule: Q01DX009 (ip), vehicle: saline with Tween-80 100 % of control | dose: 400.0 mg/kg/injection, schedule: Q01DX009 (ip), vehicle: saline with Tween-80 96 % of control

O=S1(c2ccccc2)=NP(N2CC2)(N2CC2)=NP(N2CC2)(N2CC2)=N1 (stereo not given)
inactive: dose: 18.75 mg/kg/injection, schedule: Q04DX003 (ip), vehicle: saline 99 % of control | dose: 37.5 mg/kg/injection, schedule: Q04DX003 (ip), vehicle: saline 93 % of control | dose: 75.0 mg/kg/injection, schedule: Q04DX003 (ip), vehicle: saline 120 % of control

CSc1nc2cc(S(=O)(=O)C(F)F)ccc2s1
inactive: dose: 6.25 mg/kg/injection, schedule: Q01DX009 (ip), vehicle: Klucel (hydroxypropylcellulose) (HPC) 94 % of control | [1] 94 % of control

COc1c(C)c2c(c(C)c1Cl)Oc1c(C)c(O)c(Cl)c(C)c1C(=O)O2
inactive: dose: 1.12 mg/kg/injection, schedule: Q01DX009 (ip), vehicle: Klucel (hydroxypropylcellulose) (HPC) 112 % of control | dose: 2.25 mg/kg/injection, schedule: Q01DX009 (ip), vehicle: Klucel (hydroxypropylcellulose) (HPC) 105 % of control | dose: 4.5 mg/kg/injection, schedule: Q01DX009 (ip), vehicle: Klucel (hydroxypropylcellulose) (HPC) 108 % of control | dose: 9.0 mg/kg/injection, schedule: Q01DX009 (ip), vehicle: Klucel (hydroxypropylcellulose) (HPC) 96 % of control | dose: 18.0 mg/kg/injection, schedule: Q01DX009 (ip), vehicle: Klucel (hydroxypropylcellulose) (HPC) 102 % of control

C/C(=C\Cl)COC1CCCCO1 (stereo not given)
inactive: [6] 122 % of control | [7] 122 % of control

CC(=Nc1ccc(F)cc1)C1C(=O)c2ccccc2C1=O
inactive: [8] 100 % of control | [9] 100 % of control | dose: 200.0 mg/kg/injection, schedule: Q01DX005 (ip), vehicle: Klucel (hydroxypropylcellulose) (HPC) 100 % of control

Cc1ccc(S(=O)(=O)NC(=O)NC(=S)c2cccc3ccccc23)cc1
inactive: [10] 101 % of control | [11] 99 % of control | [12] 102 % of control

C[n+]1cccc(C2=CCCC2)c1
inactive: dose: 3.13 mg/kg/injection, schedule: Q01DX009 (ip), vehicle: saline 109 % of control | dose: 6.25 mg/kg/injection, schedule: Q01DX009 (ip), vehicle: saline 100 % of control | dose: 12.5 mg/kg/injection, schedule: Q01DX009 (ip), vehicle: saline 100 % of control | dose: 12.5 mg/kg/injection, schedule: Q04DX003 (ip), vehicle: water 102 % of control | dose: 25.0 mg/kg/injection, schedule: Q01DX009 (ip), vehicle: saline 100 % of control | dose: 25.0 mg/kg/injection, schedule: Q04DX003 (ip), vehicle: saline with Tween-80 93 % of control | dose: 25.0 mg/kg/injection, schedule: Q04DX003 (ip), vehicle: water 97 % of control | dose: 50.0 mg/kg/injection, schedule: Q04DX003 (ip), vehicle: saline with Tween-80 92 % of control | dose: 100.0 mg/kg/injection, schedule: Q04DX003 (ip), vehicle: saline with Tween-80 97 % of control | dose: 200.0 mg/kg/injection, schedule: Q04DX003 (ip), vehicle: saline with Tween-80 105 % of control

Reference: PubChem BioAssay AID330 (DTP/NCI, 2004)
